Source: patent US6667025B2 (Mitsubishi Pharma Corporation, priority 1997, dated 2003)

How the values were obtained:
[1] = tested on: skin allograft, WKAH donor and F344 recipients; type: in vivo
Excerpt: Two MHC-incompatible rat strains were selected, WKAH donor (RT1^k) and F344 recipients (RT1^IV1). Full-thickness skin grafts (2.0×2.0 cm square) were transplanted to the lateral thorax of recipients and wrapped with sterile, bactericidal gauze. The chest was then wrapped with an elastic bandage. Five days after transplantation, the wraps were removed and the grafts inspected daily for rejection. Rejection was defined as more than 90% necrosis of graft epithelium.

[2] = tested on: calcein-prelabeled lymphocytes in lymphoid tissues; assay: Lymphocyte homing of calcein-prelabeled lymphocytes; type: in vivo, rat; settings: oral 1 mg/kg
Procedure: The lymphocytes prepared from mesenteric lymph nodes and axillary lymph nodes in 5 to 6-week old F344 rats were pre-labeled with calcein-AM (Molecular Probes) at 1 μmol/L on ice for 30 min. After the labeling with calcein-AM, the lymphocytes were washed three times with ice-cold saline. Thereafter, the calcein-prelabeled lymphocytes at 5×10^7 cells were transfused through the tail vein to sex and age-matched F344 rats. FTY720 at 0.1 or 1 mg/kg was orally administered 2.5 hours before the transfusion. After 30 min. of the transfusion, mesenteric lymph nodes, axillary lymph nodes, Peyer's patches, and spleen were removed and the numbers of calcein prelabeled lymphocytes in these tissues were measured using flow cytometer (EPICS-XL). To examine the influence of antibodies against lymphocyte homing receptors, the calcein-prelabeled lymphocytes were treated with 60 μg/ml of either mouse anti-rat CD49d Mab (clone TA-2) (49), hamster anti-rat CD62L Mab (clone HRL3) (50), mouse anti-rat CD11a Mab (clone WT.1) (51), or control Ig at 4° C. for 30 min. Anti-rat lymphocyte-homing receptor Mabs and control Ig were purchased from Seikagaku-kougyou Ltd. or Pharmingen, respectively.

[3] = tested on: male F344 rat lymphocytes in lymphoid tissues; assay: Homing of transfused male lymphocytes in female rats (SRY PCR); type: in vivo; settings: 0.1 or 1 mg/kg oral 2.5 h before transfusion; 30 min after transfusion
Procedure: The decrease in circulating lymphocytes by FTY720 is due to the acceleration of lymphocyte homing to mesenteric and peripheral lymph nodes and Peyer's patches (FIGS. 13A-13D). For this experiment, after 2.5 h of administering FTY720 at 0.1 mg/kg or 1 mg/kg orally to female F344 rats, lymphocytes from male F344 rat were transfused intravenously into the rats. Thirty minutes after the transfusion, the peripheral blood, spleen, mesenteric lymph nodes, axillary lymph nodes, Peyer's patches, liver, and lung were removed. PCR amplification of SRY-1 gene, which is Y-chromosome specific, detected male lymphocytes in the tissue samples. The PCR primer sequences for SRY amplification were taken from a previous report (47). […]
An aliquot (10 μl) of the PCR products was electrophoresed on 2.5% agarose gel and the amplified DNA-fragments stained with SYBR Green I (Molecular Probes). The fluorescence intensity of the specific bands was visualized and measured by a fluorescence image analyzer (Fluor Imager 575, Molecular Dynamics). The number of male cells in 10^6 female cells, calculated with a standard curve made from a control amplification of SRY from a standard DNA extracted from 10^6 […], is indicated for each tissue noted in FIGS. 13A-13D.

[4] = tested on: (LEW×BN)F1 recipients injected with LEW spleen cells; assay: Lethal GvHR in cyclophosphamide-pretreated recipients; type: in vivo, rat
Procedure: To examine the effect of FTY720 in preventing the lethal GvHR, splenic lymphocytes from LEW donor rats (1×10^8 spleen cells) were injected intravenously into cyclophosphamide-pretreated (LEW×BN)F1 recipients. Cyclophosphamide (Shionogi Co. Ltd; Osaka, Japan) was given at a 200 mg/kg dose.

[5] = tested on: renal allograft, mongrel donors and beagle recipients; assay: Canine renal allograft survival; type: in vivo; settings: 5 mg/kg
Procedure: Kidneys from mongrel donor dogs were transplanted into beagle dogs in the right iliac fossa, and the recipient dogs were then nephrectomized bilaterally. Levels of serum creatine and blood urea nitrogen were measured to monitor survival. Graft rejection was defined as the day when either serum creatine levels increased to more than 10.0 mg/dL or blood urea nitrogen levels elevated to more than 200 mg/dL. […] The survival curves are illustrated in FIG. 6.

[6] = tested on: cardiac allograft, WKAH donors and ACI recipients; assay: Heterotopic cardiac allograft survival, MHC-incompatible rat strains; type: in vivo
T cell region of spleen = T cell region of spleen in vivo

SMILES: CCCCCCCCc1ccc(CCC(N)(CO)CO)cc1.Cl [FTY720, 2-amino-2[2-(4-octylphenyl)ethyl]propane-1,3-diol hydrochloride]
- median survival time (MST) of skin graft ([1]; 10 mg/kg for 14 days): 27.0 days
- oral dose that significantly prolonged skin graft survival ([1]; oral, WKAH to F344 rats): ≥ 0.1 mg/kg
- renal toxicity or other toxic signs ([1]; rat, in vivo, po, 10 mg/kg): without renal toxicity or other toxic signs
- homing of calcein-prelabeled lymphocytes to mesenteric lymph nodes and Peyer's patches [2]: induced lymphocyte homing
- pre-labeled lymphocytes in peripheral lymph nodes, Peyer's patch, mesenteric lymph nodes [3]: accelerated lymphocyte homing
- pre-labeled lymphocytes in spleen [3]: reduction
- survival of recipient rats ([4]; 0.3 mg/kg, four out of five rats, without GvHR-associated symptoms): more than 60 days
- GvHR-associated symptoms ([4]; oral 0.1 mg/kg for 30 days): prevented the development of GvHR-associated symptoms
- MST of recipient rats ([4]; oral 0.1 mg/kg for 30 days): 50.0 days
- MST of renal allograft [5]: 12.0 days
- MST of cardiac allograft ([6]; 0.1 mg/kg for 14 days): 20.0 days
- MST of cardiac allograft ([6]; 0.3 mg/kg for 14 days): 21.0 days
- MST of cardiac allograft ([6]; 1 mg/kg for 14 days): 25.5 days
- MST of cardiac allograft ([6]; 3 mg/kg for 14 days): 29.5 days
- MST of cardiac allograft ([6]; 10 mg/kg for 14 days): 58.5 days
- long-term or indefinite cardiac graft survival ([6]; 10 mg/kg, in three out of eight recipient rats): more than 100 days
- dose that significantly prolonged cardiac allograft survival ([6]; vs control): ≥ 0.1 mg/kg
- effect on T cell region of spleen (T cell region of spleen): atrophy
